Assays:
AR protein [1] = target: T1, AR protein (Homo sapiens, UniProt P10275); assay: AR protein degradation in VCaP cells (Western blotting); type: cell-based
T1 construct: host or cells: VCaP
T1 sequence (P10275 1-920): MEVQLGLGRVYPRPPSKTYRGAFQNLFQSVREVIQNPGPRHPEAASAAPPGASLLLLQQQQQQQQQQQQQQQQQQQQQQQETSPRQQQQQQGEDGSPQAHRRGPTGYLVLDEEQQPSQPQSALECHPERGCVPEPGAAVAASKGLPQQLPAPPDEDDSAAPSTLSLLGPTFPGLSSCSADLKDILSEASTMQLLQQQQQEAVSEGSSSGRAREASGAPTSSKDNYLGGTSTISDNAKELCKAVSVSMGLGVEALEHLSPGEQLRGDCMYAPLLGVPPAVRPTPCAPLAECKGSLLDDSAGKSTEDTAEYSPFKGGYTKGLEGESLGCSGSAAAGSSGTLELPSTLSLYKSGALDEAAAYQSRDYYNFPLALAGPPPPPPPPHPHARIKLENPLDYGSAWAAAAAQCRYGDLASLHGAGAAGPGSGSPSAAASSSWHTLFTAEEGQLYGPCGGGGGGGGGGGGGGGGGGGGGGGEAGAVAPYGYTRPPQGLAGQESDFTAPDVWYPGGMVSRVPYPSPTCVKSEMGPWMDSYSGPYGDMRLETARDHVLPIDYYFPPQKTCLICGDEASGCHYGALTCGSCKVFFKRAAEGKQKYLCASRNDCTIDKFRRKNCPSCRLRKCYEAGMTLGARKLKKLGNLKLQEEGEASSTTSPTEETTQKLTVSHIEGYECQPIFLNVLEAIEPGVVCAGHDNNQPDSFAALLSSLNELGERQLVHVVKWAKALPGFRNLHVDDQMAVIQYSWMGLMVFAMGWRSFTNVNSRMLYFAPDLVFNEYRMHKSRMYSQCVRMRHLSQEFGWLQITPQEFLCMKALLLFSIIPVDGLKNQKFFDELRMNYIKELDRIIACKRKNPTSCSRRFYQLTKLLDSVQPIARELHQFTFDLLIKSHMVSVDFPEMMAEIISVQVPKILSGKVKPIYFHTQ
Procedure: (§1) Cell lines and Cell Culture: All the LNCaP, VCaP and 22RV1 cells used were purchased from American Type Culture Collection (ATCC). LNCaP and 22RV1 cells were grown in RPMI 1640 (Invitrogen), VCaP cells were grown in DMEM with Glutamax (Invitrogen). All of the cells were supplemented with 10% fetal bovine serum (Invitrogen) at 37° C. in a humidified 5% CO2 incubator.
(§2) Western Blotting. Treated cells were lysed by RIPA buffer supplemented with protease and phosphatase inhibitors. The cell lysates were separated by 4-12% SDS-PAGE gels and blotted into PVDF membranes. Software ImageJ was used to quantify the percentage of AR degradation. The net protein bands and loading controls are calculated by deducting the background from the inverted band value. The final relative quantification values are the ratio of net band to net loading control.

AR protein [2] = assay: AR protein degradation in 22RV1 cells (Western blotting); type: cell-based
Procedure: as §1, §2

[3] = system: AR-regulated gene expression (PSA, TMPRSS2, FKBP5, ERG); assay: Suppression of AR-regulated gene expression in VCaP cells (qRT-PCR); type: cell-based
Procedure: (§3) Quantitative Real-Time Polymerase Chain Reaction (qRT-PCR). Real-time PCR was performed using QuantStudio 7 Flex Real-Time PCR System as described previously.^43,44 RNA was purified using the Qiagen RNase-Free DNase set, then after quantification, the extracted RNA was converted to cDNA using High Capacity RNA-to-cDNA Kit from Applied Biosystems (Thermo Fisher Scientific). The levels of AR, TMPRSS2, FKBP5, PSA(KLK3) and GAPDH were quantified using TaqMan Fast Advanced Master Mix from Applied Biosystems. The level of gene expression was evaluated using comparative CT method, which compares the CT value to GAPDH (ACT) and then to vehicle control (ΔΔCT).

VCaP cells = assay: Cell growth inhibition in VCaP cells (WST-8 assay); type: cell-based
Procedure: VCaP were treated with different compounds in charcoal stripped medium in the presence of 0.1 nM of AR agonist R1881 for 7 days. Cell viability was determined by a WST-8 assay.
as §1

[4] = system: AR-regulated gene expression (PSA, TMPRSS2, FKBP5); assay: Suppression of AR-regulated gene expression in LNCaP cells (qRT-PCR); type: cell-based
Procedure: as §3

[5] = target: T2, AR protein in VCaP xenograft tumor tissue (Homo sapiens, UniProt P10275); assay: Pharmacodynamics in VCaP xenograft tumor tissue in mice (immunoblotting); type: in vivo; settings: SCID mice, single dose 50 mg/kg IP
T2 construct: resected control and treated VCaP xenograft tumor tissues were ground into powder in liquid nitrogen and lysed; from tissue; host or cells: VCaP xenograft tumor tissue from SCID mice
T2 sequence (P10275 1-920): T1 sequence (P10275 1-920)
Procedure: FIG. 9 is an image of an immunoblotting analysis of a pharmacodynamics (PD) study of AR degrader 34 (ARD-69) in VCaP tumor tissue in mice. SCID mice bearing xenograft VCaP tumors were treated with a single dose of 34 (ARD-69) (IP, 50 mg/kg). Tumor tissues were harvested at the indicated time points for immunoblotting.
Pharmacodynamics Studies in the VCaP Xenograft Models in Mice. All animal experiments were performed under the guidelines of the University of Michigan Committee for Use and Care of Animals and using an approved animal protocol (PI, Shaomeng Wang). Xenograft tumors were established by injecting 5×10^6 VCaP cells in 50% Matrigel subcutaneously on the dorsal side of severe combined immunodeficient (SCID) mice, obtained from Charles River, one tumor per mouse. When tumors reached ˜100 mm^3, mice were randomly assigned to treatment and vehicle control groups. Animals were monitored daily for any signs of toxicity and weighed 2-3 times per week during the treatment period and at least weekly after the treatment ended. For pharmacodynamics analysis, resected control and treated VCaP xenograft tumor tissues were ground into powder in liquid nitrogen and lysed in CST lysis buffer with halt proteinase inhibitors. Twenty micrograms of whole tumor clarified lysates were separated on 4-20% or 4-12% Novex gels. Western blots were performed as detailed in the previous section.

22RV1 cells = assay: Cell growth inhibition in 22RV1 cells (WST-8 assay); type: cell-based
Procedure: 22RV1 cells were treated with a regular culture medium for 7 days. Cell viability was determined by a WST-8 assay.
Cell lines and Cell Culture: All the LNCaP, VCaP and 22RV1 cells used were purchased from American Type Culture Collection (ATCC). […] All of the cells were supplemented with 10% fetal bovine serum (Invitrogen) at 37° C. in a humidified 5% CO2 incubator.

Cc1ncsc1-c1ccc([C@H](CC(=O)N2CCC(N3CCC(C#Cc4ccc(C(=O)NC5C(C)(C)C(Oc6ccc(C#N)c(Cl)c6)C5(C)C)cc4)CC3)CC2)NC(=O)[C@@H]2C[C@@H](O)CN2C(=O)[C@@H](NC(=O)C2(F)CC2)C(C)(C)C)cc1 (stereo partly drawn) [Compound 34, (2S,4R)—N—((S)-3-(4-((4-(((1r,3r)-3-(3-Chloro-4-cyanophenoxy)-2,2,4,4-tetramethyl-cyclobutyl)carbamoyl)phenyl)ethynyl)-[1,4′-bipiperidin]-1′-yl)-1-(4-(4-methylthiazol-5-yl)phenyl)-3-oxopropyl)-1-((S)-2-(1-fluorocyclopropane-1-carboxamido)-3,3-dimethylbutanoyl)-4-hydroxypyrrolidine-2-carboxamide] was tested, and the AR degradation (AR protein [1]; 10 nM, 24 h treatment) was greater than 95%, the “Time to effective reduction of AR protein level” value (AR protein [1]; 100 nM) was no more than 2 h and the “AR depletion with a 4 h treatment” value (AR protein [1]; 100 nM, 4 h) was “near-complete AR depletion”. For the same compound, the DC50 (AR protein [1]; 24 h treatment, read-out: DC50 (drug concentration that results in 50% protein degradation)) was 0.76 nM, the “AR degradation after pretreatment with AR antagonist (6), VHL-d, MLN4924 or MG132” value (AR protein [1]; data not shown) was “effectively blocked” and the AR degradation (AR protein [2]; 22RV1, 1 μM, 24 h treatment) was “near complete degradation”. The DC50 (AR protein [2]; 22RV1, 24 h treatment, read-out: DC50 (drug concentration that results in 50% protein degradation)) was 10.4 nM, the “Potency relative to AR antagonist 6 in suppressing AR-regulated gene transcription” value [3] was greater than 100 times and the “Reduction of mRNA level of both PSA and TMPRSS2 genes” value ([3]; 10 nM) was greater than 50%. For the same compound, the ERG gene expression ([3]; dose-dependent) was “suppresses”, the “Expression of PSA, TMPRSS2 and FKBP5 genes” value ([3]; dose-dependent, data not shown) was “effectively suppressed” and the “Potency relative to enzalutamide (4) and compound 6 in cell growth inhibition” value (VCaP cells) was greater than 100 times. The IC50 (VCaP cells; charcoal stripped medium, 0.1 nM R1881, 7 days) was 0.34 nM, the “Potency relative to AR antagonist 6 in suppressing AR-regulated gene transcription” value [4] was greater than 100 times and the “Reduction of mRNA level of both PSA and TMPRSS2 genes” value ([4]; 10 nM) was greater than 50%. For the same compound, the “Expression of PSA, TMPRSS2 and FKBP5 genes” value ([4]; dose-dependent, data not shown) was “effectively suppressed”, the “Persistence of AR protein reduction” value [5] was “at least 48 h” and the “Persistence of PSA protein reduction” value [5] was 24 to 48 h. For the same compound, the “Level of PSA protein in tumor tissue” value ([5]; at the 3 h time-point) was “effectively reduced”, the “Level of AR protein in tumor tissue” value ([5]; starting at 3 h) was “effectively reduced” and the “Potency relative to enzalutamide (4) and compound 6 in cell growth inhibition” value (22RV1 cells; 22RV1) was greater than 100 times. The IC50 (22RV1 cells; 22RV1, regular culture medium, 7 days) was 183 nM.
